SMILES strings stand for the structures.

The first assay deals with Acinetobacter baumannii ATCC17961. The experiment in a line: 90% Growth Inhibitory Concentration (IC90) determination, antimicrobial susceptibility testing. The following applies: Acinetobacter baumannii, ATCC17961, 16 h, Acinetobacter baumannii ATCC17961; Iso-Sensitest broth; growth by optical density at 600 nm over 16h; concentration inhibiting 90% of the growth; read-out: ATCC 17961 IC90. It is filed as cell-based. As for the experimental part: Antimicrobial Susceptibility Testing:
90% Growth Inhibitory Concentration (IC90) Determination
The in vitro antimicrobial activity of the compounds was determined according to the following procedure:
The assay used a 10-points Iso-Sensitest broth medium to measure quantitatively the in vitro activity of the compounds against Acinetobacter baumannii ATCC17961.
Stock compounds in DMSO were serially twofold diluted (e.g. range from 50 to 0.097 μM final concentration) in 384 wells microtiter plates and inoculated with 49 μl the bacterial suspension in Iso-Sensitest medium to have a final cell concentration of ~5×10^(5) CFU/ml in a final volume/well of 50 ul/well. Microtiter plates were incubated at 35±2° C.
Bacterial cell growth was determined with the measurement of optical density at λ=600 nm each 20 minutes over a time course of 16h. Growth inhibition was calculated during the logarithmic growth of the bacterial cells with determination of the concentration inhibiting 50% (IC50) and 90% (IC90) of the growth.
Table 1 provides the 90% growth inhibitory concentrations (IC90) in micromoles per liter of the compounds of present invention obtained against the strain Acinetobacter baumannii ATCC17961.
By IC90 is commonly meant the concentration needed for an effect of 90%. As for `Cn1c(-c2cn(-c3ccc(N)cn3)nc2C(F)(F)F)cnc1C(=O)Nc1ccc(C(=O)NCc2cc[nH]n2)c(Cl)c1` [Example I2, 5-[1-(5-amino-2-pyridyl)-3-(trifluoromethyl)pyrazol-4-yl]-N-[3-chloro-4-(1H-pyrazol-3-ylmethylcarbamoyl)phenyl]-1-methyl-imidazole-2-carboxamide], the IC90 amounted to 400 nM. Same read-out and setting: with `CN1CCC(C(=O)N2CCN(C(=O)c3ccc(NC(=O)c4ncc(-c5cn(-c6ccc(N)cn6)nc5C#N)n4C)cc3Cl)CC2)CC1` [Example C11, 5-[1-(5-amino-2-pyridyl)-3-cyano-pyrazol-4-yl]-N-[3-chloro-4-[4-(1-methylpiperidine-4-carbonyl)piperazine-1-carbonyl]phenyl]-1-methyl-imidazole-2-carboxamide] the figure was 2000 nM.

Take `COc1ccc(-n2cc(-c3cnc(C(=O)Nc4ccc(C(=O)N5CCN(C(=O)C6CCNCC6)CC5)c(Cl)c4)n3C)c(C(F)(F)F)n2)nc1` [Example A13, N-[3-chloro-4-[4-(piperidine-4-carbonyl)piperazine-1-carbonyl]phenyl]-5-[1-(5-methoxy-2-pyridyl)-3-(trifluoromethyl)pyrazol-4-yl]-1-methyl-imidazole-2-carboxamide]: the 90% effect concentration (IC90) is 210 nM. For the compound `Cn1c(-c2cn(-c3ccc(NCCC(N)=O)cn3)nc2C(F)(F)F)cnc1C(=O)Nc1ccc(C(=O)N2CCN(C(=O)C3CCNCC3)CC2)c(Cl)c1` [Example C3, 5-[1-[5-[(3-amino-3-oxo-propyl)amino]-2-pyridyl]-3-(trifluoromethyl)pyrazol-4-yl]-N-[3-chloro-4-[4-(piperidine-4-carbonyl)piperazine-1-carbonyl]phenyl]-1-methyl-imidazole-2-carboxamide], the IC90 is 1200 nM. Still for that read-out and setting: with `CNC1CCN(C(=O)c2ccc(NC(=O)c3ncc(-c4cn(-c5ccc(N)cn5)nc4C(F)(F)F)n3C)cc2Cl)CC1` [Example Z4, 5-[1-(5-amino-2-pyridyl)-3-(trifluoromethyl)pyrazol-4-yl]-N-[3-chloro-4-[4-(methylamino)piperidine-1-carbonyl]phenyl]-1-methyl-imidazole-2-carboxamide] the figure was 220 nM; with `Cn1c(-c2cn(-c3ccc(N)cn3)nc2C(F)(F)F)cnc1C(=O)Nc1ccc(C(=O)N2CCN(C(=O)CN3CCC(O)C3)CC2)c(Cl)c1` (centres unmarked) [Example C16, 5-[1-(5-amino-2-pyridyl)-3-(trifluoromethyl)pyrazol-4-yl]-N-[3-chloro-4-[4-[2-(3-hydroxypyrrolidin-1-yl)acetyl]piperazine-1-carbonyl]phenyl]-1-methyl-imidazole-2-carboxamide], 260 nM. On the same count and under the same terms, with `COCCn1cnc(-n2cc(-c3cnc(C(=O)Nc4ccc(C(=O)N5CCN(C(=O)C6CCNCC6)CC5)c(Cl)c4)n3C)c(C(F)(F)F)n2)c1` [Example E3, N-[3-chloro-4-[4-(piperidine-4-carbonyl)piperazine-1-carbonyl]phenyl]-5-[1-[1-(2-methoxyethyl)imidazol-4-yl]-3-(trifluoromethyl)pyrazol-4-yl]-1-methyl-imidazole-2-carboxamide] the figure was 500 nM. Same read-out and setting: in the case of `Cn1c(-c2cn(-c3ccc(N)cn3)nc2C(F)(F)F)cnc1C(=O)Nc1ccc(C(=O)N[C@H]2CC[C@H](NC(=O)[C@@H]3C[C@@H](O)CN3)C2)c(Cl)c1` [Example Z48, 5-[1-(5-amino-2-pyridyl)-3-(trifluoromethyl)pyrazol-4-yl]-N-[3-chloro-4-[[(1S,3S)-3-[[(2S,4R)-4-hydroxyprolyl]amino]cyclopentyl]carbamoyl]phenyl]-1-methyl-imidazole-2-carboxamide] it was 510 nM; in that of `Cn1c(-c2cn(-c3ccncc3)nc2C(F)(F)F)cnc1C(=O)Nc1ccc(C(=O)N2CCN(C(=O)C3CCNCC3)CC2)c(Cl)c1` [Example A2, N-[3-chloro-4-[4-(piperidine-4-carbonyl)piperazine-1-carbonyl]phenyl]-1-methyl-5-[1-(4-pyridyl)-3-(trifluoromethyl)pyrazol-4-yl]imidazole-2-carboxamide], 710 nM; in that of `Cn1cnc(-n2cc(-c3cnc(C(=O)Nc4ccc(C(=O)N5CCN(C(=O)C6CCNCC6)CC5)c(Cl)c4)n3C)c(C(F)(F)F)n2)c1` [Example E4, N-[3-chloro-4-[4-(piperidine-4-carbonyl)piperazine-1-carbonyl]phenyl]-1-methyl-5-[1-(1-methylimidazol-4-yl)-3-(trifluoromethyl)pyrazol-4-yl]imidazole-2-carboxamide], 680 nM.

On to `Cn1c(-c2cn(-c3ncc4cn[nH]c4n3)nc2C(F)(F)F)cnc1C(=O)Nc1ccc(C(=O)N2CCN(C(=O)C3CCNCC3)CC2)c(Cl)c1` [Example A9, N-[3-chloro-4-[4-(piperidine-4-carbonyl)piperazine-1-carbonyl]phenyl]-1-methyl-5-[1-(1h-pyrazolo[3,4-d]pyrimidin-6-yl)-3-(trifluoromethyl)pyrazol-4-yl]imidazole-2-carboxamide], for which the concentration for an effect of 90% (IC90) came to 510 nM.

Take `COCCNc1ccc(-n2cc(-c3cnc(C(=O)Nc4ccc(C(=O)N5CCN(C(=O)C6CCNCC6)CC5)c(Cl)c4)n3C)c(C(F)(F)F)n2)nc1` [Example C2, N-[3-chloro-4-[4-(piperidine-4-carbonyl)piperazine-1-carbonyl]phenyl]-5-[1-[5-(2-methoxyethylamino)-2-pyridyl]-3-(trifluoromethyl)pyrazol-4-yl]-1-methyl-imidazole-2-carboxamide]: the IC90 came out at 340 nM. The same measure, in the same setting: with `Cn1c(-c2cn(-c3ccc([N+](=O)[O-])cn3)nc2C(F)(F)F)cnc1C(=O)Nc1ccc(C(=O)N2CCN(C(=O)[C@H]3NCC[C@@H]3O)CC2)c(Cl)c1` [Example C17, N-[3-chloro-4-[4-[(2S,3S)-3-hydroxypyrrolidine-2-carbonyl]piperazine-1-carbonyl]phenyl]-1-methyl-5-[1-(5-nitro-2-pyridyl)-3-(trifluoromethyl)pyrazol-4-yl]imidazole-2-carboxamide] the figure was 790 nM. Still for that read-out and setting: in the case of `CNc1ccc(-n2cc(-c3cnc(C(=O)Nc4ccc(C(=O)N5CCN(C(=O)[C@H]6NCC[C@@H]6O)CC5)c(Cl)c4)n3C)c(C(F)(F)F)n2)nc1` [Example D4, N-[3-chloro-4-[4-[(2S,3S)-3-hydroxypyrrolidine-2-carbonyl]piperazine-1-carbonyl]phenyl]-1-methyl-5-[1-[5-(methylamino)-2-pyridyl]-3-(trifluoromethyl)pyrazol-4-yl]imidazole-2-carboxamide] it was 520 nM; in that of `Cn1c(-c2cn(-c3ccc(N)cn3)nc2C(F)(F)F)cnc1C(=O)Nc1ccc(C(=O)NCC2CC2NC(=O)[C@@H]2C[C@@H](O)CN2)c(Cl)c1` (stereo partly drawn) [Example Z36, 5-[1-(5-amino-2-pyridyl)-3-(trifluoromethyl)pyrazol-4-yl]-N-[3-chloro-4-[[2-[[(2S,4R)-4-hydroxyprolyl]amino]cyclopropyl]methylcarbamoyl]phenyl]-1-methyl-imidazole-2-carboxamide], 1180 nM.

On to `Cn1c(-c2cn(-c3ccc(N)cn3)nc2C(F)(F)F)cnc1C(=O)Nc1ccc(C(=O)N[C@@H]2CC[C@@H](NC(=O)[C@@H]3C[C@@H](O)CN3)C2)c(Cl)c1` [Example Z23, 5-[1-(5-amino-2-pyridyl)-3-(trifluoromethyl)pyrazol-4-yl]-N-[3-chloro-4-[[(1R,3R)-3-[[(2S,4R)-4-hydroxyprolyl]amino]cyclopentyl]carbamoyl]phenyl]-1-methyl-imidazole-2-carboxamide], for which the IC90 was found to be 360 nM.

The same assay, now with this note: Acinetobacter baumannii, ATCC17961, 16 h, read-out: ATCC 17961 IC90.
Regarding `Cn1c(-c2cn(-c3ccc(N)cn3)nc2C(F)(F)F)cnc1C(=O)Nc1ccc(C(=O)N2CCN(C(=O)[C@@H]3CC(O)CCN3)CC2)c(Cl)c1` (some centres unmarked) [Example J1], the concentration for an effect of 90% (IC90) was found to be 580 nM. On the same count and under the same terms, in the case of `Cn1c(-c2cn(-c3ncccn3)nc2C(F)(F)F)cnc1C(=O)Nc1ccc(C(=O)N2CCN(C(=O)[C@H]3[C@@H]4CNC[C@@H]43)CC2)c(Cl)c1` [Example F1, N-[4-[4-[(1R,5S)-3-Azabicyclo[3.1.0]hexane-6-carbonyl]piperazine-1-carbonyl]-3-chloro-phenyl]-1-methyl-5-[1-pyrimidin-2-yl-3-(trifluoromethyl)pyrazol-4-yl]imidazole-2-carboxamide] it was 450 nM; in that of `Cn1c(-c2cn(-c3ccc(N)cn3)nc2C(F)(F)F)cnc1C(=O)Nc1ccc(C(=O)N2CCN(C(=O)C3CCNCC3)CC2)c(Cl)c1` [Example C1, 5-[1-(5-Amino-2-pyridyl)-3-(trifluoromethyl)pyrazol-4-yl]-N-[3-chloro-4-[4-(piperidine-4-carbonyl)piperazine-1-carbonyl]phenyl]-1-methyl-imidazole-2-carboxamide], 220 nM. The same measure, in the same setting: in the case of `COCCn1cc(-n2cc(-c3cnc(C(=O)Nc4ccc(C(=O)N5CCN(C(=O)C6CCNCC6)CC5)c(Cl)c4)n3C)c(C(F)(F)F)n2)cn1` [Example E1, N-[3-chloro-4-[4-(piperidine-4-carbonyl)piperazine-1-carbonyl]phenyl]-5-[1-[1-(2-methoxyethyl)pyrazol-4-yl]-3-(trifluoromethyl)pyrazol-4-yl]-1-methyl-imidazole-2-carboxamide] it was 880 nM.

The values are drawn from patent publication US12679824B2 (Hoffmann-La Roche Inc., priority 2020, dated 2026).
